Here are results for 17 molecules from US8481495B2 (TetraLogic Pharmaceuticals Corporation, priority 2009, dated 2013).

One assay deals with T1, XIAP BIR-3 (Homo sapiens, UniProt P98170).
T1 construct: 40 nM of the respective IAP BIR3
In words: Fluorescence polarization binding to XIAP BIR-3 with labeled peptide AbuRPF-K(5-Fam)-NH2. The conditions noted are these: XIAP BIR-3, 40 nM BIR3, 5 nM labeled peptide, 15 min RT, pH 7.5; read-out: XIAP, nM (binding affinity KD, as range). A digest of the protocol: (§1)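 Competitive FP with 5 nM 5-Fam-labelled Smac-mimetic peptide and 40 nM IAP BIR3, 15 min at RT in 0.1 M potassium phosphate pH 7.5 with bovine γ-globulin. Polarization (mP) read at 485/520 nm; KD reported as ranges A–D (A <0.1 μM to D >10 μM).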
For orientation: Fluorescence polarisation rises when a labelled molecule tumbles more slowly, as on binding a larger partner.

The target of the next assay is T2, cIAP-1 BIR-3 (Homo sapiens, UniProt Q13490).
T2 construct: 40 nM of the respective IAP BIR3
T2 sequence (Q13490 253-363 limits assumed): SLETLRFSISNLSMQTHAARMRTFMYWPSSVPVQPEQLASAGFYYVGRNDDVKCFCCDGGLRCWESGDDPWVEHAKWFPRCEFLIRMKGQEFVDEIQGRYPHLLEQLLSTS
In words: Fluorescence polarization binding to cIAP-1 BIR-3 with labeled peptide AbuRPF-K(5-Fam)-NH2. The conditions noted are these: cIAP-1 BIR-3, 40 nM BIR3, 5 nM labeled peptide, 15 min RT, pH 7.5; read-out: cIAP1, nM (binding affinity KD, as range). In outline: as §1

The test system of the next assay is SK-OV-3 cells. In words: MTT cell growth inhibition assay in ovarian cancer cell line SK-OV-3. Type of assay: cell-based. The conditions noted are these: Homo sapiens, 72 hrs incubation, read-out: SKOV3, nM (CC50, concentration giving 50% cell survival, as range). A digest of the protocol: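 SK-OV-3 cells (5,000 per well, McCoy's medium with 10% FBS) exposed to compounds at 0.003-10 μM for 72 h at 37°C, followed by MTT for 3 h, DMSO solubilisation and OD at 535 nm. CC50 is the concentration giving 50% survival relative to control wells, reported in ranges (A <0.1 μM to D >10 μM).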

T1 sequence (P98170 241-356 limits assumed): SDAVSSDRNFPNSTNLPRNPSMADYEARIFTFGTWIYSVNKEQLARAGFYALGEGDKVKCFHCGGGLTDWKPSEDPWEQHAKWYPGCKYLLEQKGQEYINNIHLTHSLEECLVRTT

On to `CN[C@@H](C)C(=O)N[C@H](C(=O)N1CC[C@@H]2[C@H]1[C@@H](C(=O)NCc1ccc(F)cc1)CN2C(C)=O)C(C)(C)C` [Example 35, 1-Acetyl-4-[3,3-dimethyl-2-(2-methylamino-propionylamino)-butyryl]-octahydro-pyrrolo[3,2-b]pyrrole-3-carboxylic acid 4-fluoro-benzylamide], for which the Kd at XIAP BIR-3 and at cIAP-1 BIR-3 was under 100 nM in each case. The CC50 with SK-OV-3 cells was under 100 nM.
On to `CN[C@@H](C)C(=O)N[C@H](C(=O)N1CC[C@@H]2[C@H]1[C@@H](C(=O)Nc1cc(C)nn1-c1ccccc1)CN2S(C)(=O)=O)C(C)(C)C` [Example 26, 4-[3,3-Dimethyl-2-(2-methylamino-propionylamino)-butyryl]-1-methanesulfonyl-octahydro-pyrrolo[3,2-b]pyrrole-3-carboxylic acid (5-methyl-2-phenyl-2H-pyrazol-3-yl)-amide], for which the Kd at XIAP BIR-3 and on cIAP-1 BIR-3 was under 100 nM throughout. For the same molecule, the CC50 with SK-OV-3 cells lay in the range of 100 to 1000 nM.
As to `CN[C@@H](C)C(=O)N[C@H](C(=O)N1CC[C@@H]2[C@H]1[C@@H](C(=O)N(C)Cc1ccccc1)CN2S(C)(=O)=O)C1CCCCC1` [Example 9, 4-[2-Cyclohexyl-2-(2-methylamino-propionylamino)-acetyl]-1-methanesulfonyl-octahydro-pyrrolo[3,2-b]pyrrole-3-carboxylic acid benzyl-methyl-amide], the equilibrium dissociation constant (Kd) on XIAP BIR-3 and on cIAP-1 BIR-3 was under 100 nM throughout. Moreover, the CC50 in the assay with SK-OV-3 cells was 100 to 1000 nM.
`CN[C@@H](C)C(=O)N[C@H](C(=O)N1CC[C@@H]2[C@H]1[C@@H](C(=O)N1Cc3ccccc3C1)CN2S(C)(=O)=O)C1CCCCC1` [Example 13, N-{1-Cyclohexyl-2-[6-(1,3-dihydro-isoindole-2-carbonyl)-4-methanesulfonyl-hexahydro-pyrrolo[3,2-b]pyrrol-1-yl]-2-oxo-ethyl}-2-methylamino-propionamide]: the Kd on XIAP BIR-3 and at cIAP-1 BIR-3 was under 100 nM in each case. Besides, in the assay with SK-OV-3 cells, the CC50 is under 100 nM.
In the case of `CN[C@@H](C)C(=O)N[C@H](C(=O)N1CC[C@@H]2[C@H]1[C@@H](C(=O)Nc1ccc(F)cc1)CN2C(=O)CNC(=O)C(=O)NCC(=O)N1C[C@H](C(=O)Nc2ccc(F)cc2)[C@@H]2[C@H]1CCN2C(=O)[C@@H](NC(=O)[C@H](C)NC)C(C)(C)C)C(C)(C)C` [Example 54, N,N′-Bis-{2-[4-[3,3-dimethyl-2-(2-methylamino-propionylamino)-butyryl]-3-(4-fluoro-phenylcarbamoyl)-hexahydro-pyrrolo[3,2-b]pyrrol-1-yl]-2-oxo-ethyl}-oxalamide], the Kd at XIAP BIR-3 and on cIAP-1 BIR-3 was under 100 nM each time. In addition, the CC50 with SK-OV-3 cells was under 100 nM.
For the molecule `CN[C@@H](C)C(=O)N[C@H](C(=O)N1CC[C@@H]2[C@H]1[C@@H](C(=O)Nc1cc(C)nc3ccccc13)CN2S(C)(=O)=O)C(C)(C)C` [Example 48, 4-[3,3-Dimethyl-2-(2-methylamino-propionylamino)-butyryl]-1-methanesulfonyl-octahydro-pyrrolo[3,2-b]pyrrole-3-carboxylic acid (2-methyl-quinolin-4-yl)-amide], the Kd at XIAP BIR-3 and on cIAP-1 BIR-3 was under 100 nM throughout. Also, the CC50 in the assay on SK-OV-3 cells was under 100 nM.
`CN[C@@H](C)C(=O)N[C@H](C(=O)N1CC[C@@H]2[C@H]1[C@@H](C(=O)NCc1ccccc1)CN2C(C)=O)C(C)(C)C` [Example 38, 1-Acetyl-4-[3,3-dimethyl-2-(2-methylamino-propionylamino)-butyryl]-octahydro-pyrrolo[3,2-b]pyrrole-3-carboxylic acid benzylamide]: the Kd on XIAP BIR-3 and on cIAP-1 BIR-3 was under 100 nM each time. The CC50 in the assay on SK-OV-3 cells is under 100 nM.
With `CN[C@@H](C)C(=O)N[C@H](C(=O)N1CC[C@@H]2[C@H]1[C@@H](C(=O)NCc1ccc(F)cc1)CN2S(C)(=O)=O)C1CCCCC1` [Example 3, 4-[2-Cyclohexyl-2-(2-methylamino-propionylamino)-acetyl]-1-methanesulfonyl-octahydro-pyrrolo[3,2-b]pyrrole-3-carboxylic acid 4-fluoro-benzylamide], the Kd at XIAP BIR-3 and at cIAP-1 BIR-3 was under 100 nM each time. Besides, the CC50 in the assay on SK-OV-3 cells is under 100 nM.
Consider `CN[C@@H](C)C(=O)N[C@H](C(=O)N1CC[C@@H]2[C@H]1[C@@H](C(=O)N[C@@H]1CCCc3ccccc31)CN2C(C)=O)C(C)(C)C` [Example 34, 1-Acetyl-4-[3,3-dimethyl-2-(2-methylamino-propionylamino)-butyryl]-octahydro-pyrrolo[3,2-b]pyrrole-3-carboxylic acid (1,2,3,4-tetrahydro-naphthalen-1-yl)-amide], for which the dissociation constant Kd on XIAP BIR-3 and on cIAP-1 BIR-3 was under 100 nM each time. Moreover, in the assay on SK-OV-3 cells, the CC50 was under 100 nM.
Consider `CN[C@@H](C)C(=O)N[C@H](C(=O)N1CC[C@@H]2[C@H]1[C@@H](C(=O)NCc1ccccc1)CN2S(C)(=O)=O)C1CCCCC1` [Example 2, 4-[2-Cyclohexyl-2-(2-methylamino-propionylamino)-acetyl]-1-methanesulfonyl-octahydro-pyrrolo[3,2-b]pyrrole-3-carboxylic acid benzylamide], for which the equilibrium dissociation constant (Kd) on XIAP BIR-3 and on cIAP-1 BIR-3 was under 100 nM in each case. Moreover, the CC50 in the assay with SK-OV-3 cells was under 100 nM.
In the case of `CN[C@@H](C)C(=O)N[C@H](C(=O)N1CC[C@@H]2[C@H]1[C@@H](C(=O)N[C@@H](Cc1ccccc1)C(=O)OC)CN2S(C)(=O)=O)C1CCCCC1` [Example 10, 2-({4-[2-Cyclohexyl-2-(2-methylamino-propionylamino)-acetyl]-1-methanesulfonyl-octahydro-pyrrolo[3,2-b]pyrrole-3-carbonyl}-amino)-3-phenyl-propionic acid methyl ester], the Kd on XIAP BIR-3 and on cIAP-1 BIR-3 was 100 to 1000 nM each time. Moreover, in the assay with SK-OV-3 cells, the CC50 lay in the range of 1000 to 10000 nM.
As to `CN[C@@H](C)C(=O)N[C@H](C(=O)N1CC[C@@H]2[C@H]1[C@@H](C(=O)NC(c1ccccc1)c1ccccc1)CN2S(C)(=O)=O)C1CCCCC1` [Example 6, 4-[2-Cyclohexyl-2-(2-methylamino-propionylamino)-acetyl]-1-methanesulfonyl-octahydro-pyrrolo[3,2-b]pyrrole-3-carboxylic acid benzhydryl-amide], the Kd at XIAP BIR-3 and on cIAP-1 BIR-3 was under 100 nM throughout. Further, in the assay with SK-OV-3 cells, the CC50 lay within 100 to 1000 nM.
Consider `CN[C@@H](C)C(=O)N[C@H](C(=O)N1CC[C@@H]2[C@H]1[C@@H](C(=O)N[C@@H]1CCCc3ccccc31)CN2S(C)(=O)=O)C1CCCCC1` [Example 1, 4-[2-Cyclohexyl-2-(2-methylamino-propionylamino)-acetyl]-1-methanesulfonyl-octahydro-pyrrolo[3,2-b]pyrrole-3-carboxylic acid (1,2,3,4-tetrahydro-naphthalen-1-yl)-amide], for which the dissociation constant Kd at XIAP BIR-3 and at cIAP-1 BIR-3 was under 100 nM throughout. In addition, the CC50 in the assay on SK-OV-3 cells is under 100 nM.
Turning to `CN[C@@H](C)C(=O)N[C@H](C(=O)N1CC[C@H]2NC[C@H](C(=O)Nc3ccccc3)[C@H]21)C1CCCCC1` [Example 31], the Kd on XIAP BIR-3 is 100 to 1000 nM; on cIAP-1 BIR-3 it was under 100 nM. Besides, in the assay on SK-OV-3 cells, the CC50 lay in the range of 100 to 1000 nM.
With `CN[C@@H](C)C(=O)N[C@H](C(=O)N1CC[C@@H]2[C@H]1[C@@H](C(=O)Nc1ccccc1)CN2S(C)(=O)=O)C(C)(C)C` [Example 22, 4-[3,3-Dimethyl-2-(2-methylamino-propionylamino)-butyryl]-1-methanesulfonyl-octahydro-pyrrolo[3,2-b]pyrrole-3-carboxylic acid phenylamide], the Kd at XIAP BIR-3 and on cIAP-1 BIR-3 was under 100 nM in each case. Further, the CC50 in the assay with SK-OV-3 cells was under 100 nM.
For the molecule `CN[C@@H](C)C(=O)N[C@H](C(=O)N1CC[C@@H]2[C@H]1[C@@H](C(=O)Nc1nccc3ccccc13)CN2S(C)(=O)=O)C(C)(C)C` [Example 49, 4-[3,3-Dimethyl-2-(2-methylamino-propionylamino)-butyryl]-1-methanesulfonyl-octahydro-pyrrolo[3,2-b]pyrrole-3-carboxylic acid isoquinolin-1-ylamide], the Kd on XIAP BIR-3 and at cIAP-1 BIR-3 was under 100 nM each time. Besides, the CC50 with SK-OV-3 cells was under 100 nM.
On to `CN[C@@H](C)C(=O)N[C@H](C(=O)N1CC[C@@H]2[C@H]1[C@@H](C(=O)N1CCc3ccccc31)CN2S(C)(=O)=O)C1CCCCC1` [Example 15, N-{1-Cyclohexyl-2-[6-(2,3-dihydro-indole-1-carbonyl)-4-methanesulfonyl-hexahydro-pyrrolo[3,2-b]pyrrol-1-yl]-2-oxo-ethyl}-2-methylamino-propionamide], for which the equilibrium dissociation constant (Kd) on XIAP BIR-3 and on cIAP-1 BIR-3 was 100 to 1000 nM each time. In addition, the CC50 with SK-OV-3 cells was under 100 nM.

Broadly, the Kd is the concentration at which binding is half-saturated.
